Measured values: patent US20190185439A1, “RADIOFLUORINATED CARBOXIMIDAMIDES AS IDO TARGETING PET TRACER FOR CANCER IMAGING” (H. LEE MOFFITT CANCER CENTER & RESEARCH INSTITUTE, INC., priority 2016, published 2019)

Legend:
[1] = tested on: Hela tumor xenografts; experiment: MicroPET imaging of Hela tumor xenografts; type: in vivo, mice; conditions: for tracer accumulation in tumor: PET
Protocol: Female athymic C57BL/6 nude mice (4-6 weeks old) were ordered from Charles River Laboratories (Stone Ridge, N.Y., U.S.A.) and housed in a temperature and humidity controlled room. After 7 to 14 days of acclimatization, a total of 5×10^6 Hela cells were inoculated subcutaneously in 200 μL serum-free medium into the right flank of hind leg. Once tumors reach an appropriate size (3-4 mm in diameter) the mice were randomized into 5 groups (4/group). Then the mice in every group were randomized into two subgroups (rHu IFN-γ treatment or no rHu IFN-γ treatment). All the rHu IFN-γ treatment mice were injected i.p. of 1.5×10^5 U rHu IFN-γ/mouse/day. 24 h later, group one of mice were anesthetized by gas inhalation (2% vol/vol isoflurane in oxygen), then mice were euthanized and tumor tissues were dissected for further IDO western blotting and IHC in vitro. The same operation can be repeated at 48 h, 72 h, 96 h and 120 h points.
In order to evaluate the in vivo imaging performance of [^18F]IDO49 to IDO tumors, microPET imaging was performed on nude mice bearing Hela tumor xenografts both rHu IFN-γ treatment and none rHu IFN-γ treatment using the Inveon small-animal PET/CT scanner (Siemens). Anesthesia was induced with 4-5% isoflurane and maintained with 1-3% isofluorane delivered with a mixed air/oxygen through a closed nose cone throughout the PET imaging session. Mice bearing Hela tumor xenografts with rHu IFN-γ treatment were injected with 3.70-7.40 MBq (100-200 μCi) of [^18F]IDO49 in 200 μL of saline, and the baseline control mice with none rHu IFN-γ treatment was injected with the same radiotracer. PET data were collected for 90 min following radioligand administration and reconstructed into 38 dynamic frames of increasing length (6×10, 6×20, 4×30, 9×60, 2×180, 8×300, and 3×600 s). For a comparative study, [^11C]AMT PET imaging scan was also performed on Hela tumor mice at 60 min after intravenous injection of [^11C]AMT PET (3.7 MBq). The images were reconstructed and the regions of interest (ROIs) were drawn over the tumor and muscle, PET images were converted to percent injected dose per gram (%ID/g of tissue) for evaluation of tumor specificity. Image analysis was performed using the Inevon Research Workplace software.

[2] = molecular target: T1, Human IDO (Homo sapiens, UniProt P14902); experiment: IDO enzyme assay; type: biochemical; conditions: enzyme activity remaining at different inhibitor concentrations
T1 construct: purchased enzolifesciences ALX-201-333-C050
Protocol: The assays were performed at room temperature as described as literature reported with minor revision. […] In each well of 96 well-plate, 10 μL of Human IDO (0.05 mg/mL in KHPO4, 50 mM, PH 6.5) was added into 39 μL buffers (KHPO4, 50 mM, PH 6.5) and 1 μL inhibitor buffer in DMSO (2000, 600, 200, 60, 20, 6, 2, 0.6, 0.2 μM). Then, 50 μL the substrate buffer (4 mM L-tryptophan, 40 mM ascorbate, 20 μM methylene blue, 0.2 mg/mL catalase) was mixed into each well and incubated at 37° C. for 2 hours. Then, 10 μL of 6.1N trichloroacetic acid was mixed into each well and incubated at 52° C. for 30 min to hydrolyze N-formylkynurenine produced by IDO to kynurenine. The reaction mixture was incubated with 100 μL of 0.02 g/mL p-(dimethylamino)benzaldehyde in acetic acid at room temperature for 10 minutes. […] L-Kynurenine used as the standard, was prepared in a series of concentrations (1000, 500, 200, 100, 50, 20, 10 μM). The percent inhibition at individual concentrations was determined and the average values of duplicates were obtained. The data was processed using nonlinear regression to generate IC50 values (Prism Graphpad).

[3] = molecular target: T2, IDO in IFN-γ induced HeLa cells (Homo sapiens, UniProt P14902); experiment: IDO Hela cells assay (kynurenine formation); type: cell-based; conditions: for IFN-γ induced IDO activity in HeLa cell lines inhibited by IDO inhibitors: FIG. 2
T2 construct: native IDO in HeLa cells; endogenous in cells; host or cells: HeLa cells stimulated with human IFN-γ
Protocol: Hela cells assay was carried out according to the reference (Takikawa, O., et al. (1988). “Mechanism of interferon-gamma action. Characterization of indoleamine 2,3-dioxygenase in cultured human cells induced by interferon-gamma and evaluation of the enzyme-mediated tryptophan degradation in its anticellular activity.” J Biol Chem 263(4):2041-2048; Yue, E. W., et al. (2009). “Discovery of potent competitive inhibitors of indoleamine 2,3-dioxygenase with in vivo pharmacodynamic activity and efficacy in a mouse melanoma model.” J Med Chem 52(23): 7364-7367) with minor modification. HeLa cells were routinely maintained in Earle's Minimum Essential Medium (EMEM) (ATCC 30-2003) and 10% fetal bovine serum. Cells were kept at 37° C. in a humidified incubator supplied with 5% CO2. The assay was performed as follows: HeLa cells were seeded in a 96 well culture plate at a density of 5×10^3 per well in 100 μL culture media. After grown overnight (16 h), human IFN-γ (50 ng/mL final concentration) and serial dilutions of compounds in 100 μL culture medium per well were added into cells. After an additional 48 hours of incubation, 140 μL of the supernatant per well was transferred to a new 96 well plate. Ten microliters of 6.1 N trichloroacetic acid were mixed into each well and incubated at 50° C. for 30 min to hydrolyze N-formylkynurenine produced by IDO to kynurenine. The reaction mixture was then centrifuged for 10 min at 2500 rpm to remove sediments. One hundred microliters of the supernatant per well were transferred to another 96 well plate and mixed with 100 μL of 2% (w/v) p-dimethylaminobenzaldehyde in acetic acid. The yellow color derived from kynurenine was measured at 492 nm using a SPECTRAmax 250 microplate reader. L-Kynurenine, used as the standard, was prepared in a series of concentrations (200, 100, 50, […], 12.5, 6.3, 3.2, 1.6 μM) in 100 μL HeLa cell culture media and analyzed in the same procedure. The percent inhibition at individual concentrations was determined and the average values of duplicates were obtained. The data was processed using nonlinear regression to generate IC50 values (Prism Graphpad).

[4] = tested on: IFN-γ stimulated HeLa cells; experiment: Hela cell uptake of radioligands; type: cell-based, human
Protocol: HeLa cells were seeded in a 24 well culture plate at a density of 2×10^4 per well in 400 μL culture media w/FBS. After grown overnight (16 h), human IFN-γ (25 ng/well, 50 ng/mL final concentration) in 100 μL DMEM w/FBS were added into cells. The cells were rinsed with phosphate-buffered saline (PBS), and 500 μL of Earle's Minimum Essential Medium (EMEM) (ATCC 30-2003) and 10% fetal bovine serum was added to the culture wells. […] At each given time point, the cell supernatants were discard and wash the cells with PBS (0.5 mL) 3 times, the cells were subsequently lysed with 150 μL of trypsin-EDTA in each well and incubated for 5 min at 37° C., then collect the cell digestion solution and add another 150 μL of PBS into each well to collect the cells. All measurements were performed with a γ-counter (Wizard; PerkinElmer).
HeLa, PANCO2,HCT116 and 4T1 cells were selected and those cells were then cultured in the absence or presence of IFN-γ as described followed by Western Blotting to confirm IDO expression.

[5] = Lipophilicity determination (shake-flask, n-octanol/PBS pH 7.4); type: physicochemical; conditions: n-octanol/buffer pH 7.4, shake-flask
Protocol: [^18F]IDO49 (2-30 kBq in 30 μL of water) was added to a two-layer system of n-octanol (500 μL) and 0.1M phosphate buffered saline (PBS) pH 7.4 (500 μL) in an eppendorf vial. The vessel was vortexed for 3 min and then centrifuged at 10000 rpm for 2 min. An aliquot of each layer (100 μL) was assessed for radioactivity in a wiper counter. The partition coefficient (logD7.4) was calculated as the decimal logarithm of the ratio between the counted radioactivity in the n-octanol layer and the counted radioactivity in the aqueous layer. logD7.4=(Count of n-octanol sample−Count of background)/(Count of PBS sample−Count of background). CLogP (calculated LogP) values were determined using CHEMBIODRAW ULTRA 12.0 software (Cambridge soft. Perkin-Elmer, Waltham, Mass., USA).
LogD (n-octanol/buffer pH 7.4 partition coefficient) of [^18F]IDO49 was measured using the shake-flask method and the calculated LogP (cLogP, n-octanol/water partition coefficient) was determined using CHEMBIODRAW software.

[6] = molecular target: T3, IDO in IFN-γ stimulated HeLa cells (Homo sapiens, UniProt P14902); experiment: Competitive cell-binding assay; type: cell-based; conditions: blocking with INCB024360 and NLG919, FIG. 8
T3 construct: native IDO in HeLa cells; endogenous in cells; host or cells: HeLa cells stimulated with human IFN-γ
Protocol: All measurements were performed with a γ-counter (Wizard; PerkinElmer). The specificities of radioligands were determined as percentage.

[7] = in vivo; cited from earlier work
[8] = IFN-γ treatment Hela tumor mice

T2 sequence (P14902 whole entry): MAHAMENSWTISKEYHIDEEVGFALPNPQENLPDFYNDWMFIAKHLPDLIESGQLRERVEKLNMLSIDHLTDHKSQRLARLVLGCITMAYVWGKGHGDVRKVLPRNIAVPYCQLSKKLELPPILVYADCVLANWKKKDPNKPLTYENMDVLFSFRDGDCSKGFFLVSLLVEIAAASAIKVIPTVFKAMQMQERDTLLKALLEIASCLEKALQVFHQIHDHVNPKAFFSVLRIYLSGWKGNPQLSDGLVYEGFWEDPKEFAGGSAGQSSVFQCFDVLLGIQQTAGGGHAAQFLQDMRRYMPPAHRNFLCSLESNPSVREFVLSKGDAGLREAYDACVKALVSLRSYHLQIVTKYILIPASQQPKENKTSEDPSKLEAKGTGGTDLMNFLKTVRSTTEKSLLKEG
T1 sequence (P14902 whole entry): as above
T3 sequence (P14902 whole entry): as above

## C[C@](N)(Cc1c[nH]c2ccccc12)C(=O)O [[^11C]AMT, α-[^11C] methyl-L-tryptophan, reference compound]
[1]; [8]
  tracer accumulation in tumor: significant tracer accumulation

## Nc1nonc1C(=NO)Nc1ccc(F)c(Cl)c1 [IDO5L, 4-amino-N-(3-chloro-4-fluorophenyl)-N′-hydroxy-1,2,5-oxadiazole-3-carboximidamide, reference compound]
[2]
  affinity of human IDO for compound: higher affinity
[3]
  potency in HeLa cell-based assays compared with enzyme assays: slightly more potent
  IFN-γ induced IDO activity in HeLa cell lines inhibited by IDO inhibitors: inhibited

## Nc1nonc1C(=NO)Nc1ccc([18F])c(Cl)c1 [[^18F]IDO5L, [^18F] 4-amino-N-(3-chloro-4-fluorophenyl)-N′-hydroxy-1,2,5-oxadiazole-3-carboximidamide, reference compound]
[4]; all time points, PANCO2, HCT116, 4T1 as comparison
  uptake in IFN-γ stimulated HeLa cells compared with other cell lines: remarkably greater
[5]
  logD7.4: 2.13±0.11

## ON=C(Nc1ccc(F)c(Cl)c1)c1nonc1NCCF [IDO49]
[2]
  affinity of human IDO for compound: higher affinity
[3]
  potency in HeLa cell-based assays compared with enzyme assays: slightly more potent
  IFN-γ induced IDO activity in HeLa cell lines inhibited by IDO inhibitors: inhibited

## ON=C(Nc1ccc(F)c(Cl)c1)c1nonc1NCC[18F] [[^18F]IDO49]
[6]
  specific binding to IDO in vitro: high specific binding
[4]; IFN-γ stimulation, different time points
  retention in IDO expression Hela cell line: retained at favorable levels
[5]
  logD7.4: 1.37±0.02
[1]; 60 min dynamic scan
  radioactive uptake in the kidney: high
[1]; 60 min post-injection, IFN-γ treatment Hela tumor mice
  tumor to muscle (T/M) relative uptake ratio, peak: 2.29±0.05
[1]; [8]
  tracer accumulation in tumor: selectively accumulated
[1]; summed images of dynamic microPET scans
  average SUV of the tumor, IFN-γ treatment vs none treatment: higher than none treatment

## Cn1cc(C[C@H](N)C(=O)O)c2ccccc21 [L-1-MT]
[4]; Hela cells, 120 mins, FIG. 7B
  inhibition of IDO activity (cell uptake of [18F]IDO5L): strong inhibition

## NS(=O)(=O)NCCNc1nonc1C(=NO)Nc1ccc(F)c(Br)c1 [INCB024360]
[7]
  clearance t1/2: < 30 min
